From patent publication US9446011B2, “Anticonvulsant combination therapy” (UCB Pharma GmbH, priority 2006, dated 2016)
“Also recorded” adds a separate entry of the source.

Key:
motor coordination = assay: Rotarod test; assay type: in vivo, mice; settings: drug alone at pharmacological doses
Procedure: The impaired motor function was quantified by the rotarod test in mice according to Dunham and Miya (1957). The rotarod test was undertaken by use of a rod of 3 cm diameter, rotating at constant speed of 6 rpm. In this test, an acute neurological deficit (adverse effects produced by AEDs) was indicated by the inability of the animals to maintain their equilibrium for at least 120 s on the rotating rod. The dose ratio assessed in this model was always 1:1. For comparison, each AED was tested alone at its ED50 and 50% of its ED50 in the 6 Hz model.

[1] = tested on: voltage gated sodium channels; assay: Voltage gated sodium channels in cell/tissue culture; assay type: cell-based; settings: recent data
[2] = target: collapsing response mediator protein CRMP-2 (Homo sapiens, UniProt Q16555); assay: Modulation of CRMP-2; settings: recent data
[3] = tested on: 6 Hz refractory seizure model; settings: in vivo; cited from earlier work
[4] = tested on: maximal electroshock seizure [MES]; settings: in vivo; cited from earlier work
sound-induced seizure = settings: mouse, in vivo; cited from earlier work
[5] = tested on: refractory self-sustaining status epilepticus; settings: in vivo; cited from earlier work
[6] = tested on: cobalt-homocysteine-induced status epilepticus; settings: in vivo; cited from earlier work
[7] = tested on: lithium-pilocarpine-induced status epilepticus; settings: in vivo; cited from earlier work
[8] = tested on: neurotransmitter receptors or ion channels; settings: more than 100 different sites; cited from earlier work
NMDA-evoked currents = settings: cell/tissue culture; cited from earlier work
[9] = tested on: voltage gated sodium channels; settings: cell/tissue culture; cited from earlier work
GABA currents = settings: mouse cortical neurons; cited from earlier work
glutamate transmission = settings: mouse cortical neurons; cited from earlier work
[10] = tested on: pattern of neuronal activation; settings: 2-deoxy glucose technique; cited from earlier work
[11] = Clinical population pharmacokinetic analysis
6 Hz-induced seizures = assay: 6 Hz seizure test in mice with isobolographic analysis; settings: for anticonvulsant effects against 6 Hz seizure: drug administered alone, i.p., mice; for doses for antiseizure effect compared with those needed in the MES test: MES data obtained in other studies
epileptic seizures = assay: ED50 values in various models of the rat and the mouse; assay type: in vivo; settings: i.p.
Procedure: The skilled person may determine the ED50 values by methods known in the art. It is preferred that the ED50 values are determined by preclinical or/and clinical trials. Published ED50 values may also be used. […] FIGS. 12 and 13 disclose specific ED50 values obtained in various models of the rat and the mouse. A person skilled in the art knows that in a particular model, among different species, ED50 values show a variation by a factor of up to 5 or even larger.

COC[C@@H](NC(C)=O)C(=O)NCc1ccccc1 [LCM, R-2-acetamido-N-benzyl-3-methoxypropionamide]
rotarod performance (motor coordination): did not impair rotarod performance
slow inactivation of voltage-gated sodium channels [1]: enhances slow inactivation
effect on CRMP-2 [2]: modulates
anticonvulsant activity [3]: anticonvulsant activity has been shown
anticonvulsant activity [4]: anticonvulsant activity has been shown
anticonvulsant activity (sound-induced seizure): anticonvulsant activity has been shown
activity against status epilepticus [5]: active
activity against status epilepticus [6]: effective
activity against status epilepticus [7]: effective
binding [8]: neither LCM nor its metabolites bind
effects on NMDA-evoked currents (NMDA-evoked currents): no effects
effects at voltage gated sodium channels [9]: no effects
effect on GABA currents (GABA currents): increased GABA currents
effect on glutamate transmission (glutamate transmission): inhibited glutamate transmission indirectly
effect on basal patterns [10]: no effect
effect on the pattern of neuronal activation by 6 Hz induced seizures [10]: attenuated
effect on plasma levels of AEDs or vice versa [11]: no evidence for any effect
potency compared to the other tested AEDs (6 Hz-induced seizures; 6 Hz model, drugs alone): highest potency
anticonvulsant effects against 6 Hz seizure (6 Hz-induced seizures): dose-dependent anticonvulsant effects; also recorded: fully protected

CC1(C)O[C@@H]2[C@@H](CO[C@@]3(COS(N)(=O)=O)OC(C)(C)O[C@@H]23)O1 [TPM, topiramate]
doses for antiseizure effect compared with those needed in the MES test (6 Hz-induced seizures): significantly higher doses
anticonvulsant effects against 6 Hz seizure (6 Hz-induced seizures): dose-dependent anticonvulsant effects

Nc1nnc(-c2cccc(Cl)c2Cl)c(N)n1 [LTG, lamotrigine]
ED50 (epileptic seizures): about 85 mg/kg body weight
doses for antiseizure effect compared with those needed in the MES test (6 Hz-induced seizures): significantly higher doses
anticonvulsant effects against 6 Hz seizure (6 Hz-induced seizures): dose-dependent anticonvulsant effects

NCC1(CC(=O)O)CCCCC1 [GBP, gabapentin]
doses for antiseizure effect compared with those needed in the MES test (6 Hz-induced seizures): significantly higher doses
anticonvulsant effects against 6 Hz seizure (6 Hz-induced seizures): dose-dependent anticonvulsant effects

CC[C@@H](C(N)=O)N1CCCC1=O [LEV, levetiracetam]
ED50 (epileptic seizures): about 20 mg/kg body weight
protection in the 6 Hz model [3]: complete protection
anticonvulsant effects against 6 Hz seizure (6 Hz-induced seizures): dose-dependent anticonvulsant effects

O=C1NC(=O)C(c2ccccc2)(c2ccccc2)N1 [PHT, phenytoin]
doses for antiseizure effect compared with those needed in the MES test (6 Hz-induced seizures): significantly higher doses
anticonvulsant effects against 6 Hz seizure (6 Hz-induced seizures): dose-dependent anticonvulsant effects

NC(=O)N1c2ccccc2C=Cc2ccccc21 [CBZ, carbamazepine]
doses for antiseizure effect compared with those needed in the MES test (6 Hz-induced seizures): significantly higher doses
anticonvulsant effects against 6 Hz seizure (6 Hz-induced seizures): dose-dependent anticonvulsant effects
